Data taken from patent publication US11052245B2, “Device and method for localized delivery and extraction of material” (Helsingin Yliopisto, priority 2015, dated 2021).

Assays:
[1] = Delivery of phosphotungstic acid into bovine articular cartilage by MHD, imaged with X-ray micro-tomography; format: in vitro ADME; conditions: PTA 1% in PBS; MHD for 40 s, graphite electrodes ø=6 mm, 3 mm gap, 400 mA; control immersed 40 s without MHD; XMT of 150 μm slices
Description: Control: bovine articular cartilage was immersed in 1% PTA (˜2.8 kDa) in phosphate buffered saline (PBS) for 40 s.
Treatment: bovine articular cartilage was immersed in PTA 1% in PBS and exposed to MHD for 40 s. The MHD method applied graphite cylindrical electrodes (ø=6 mm), 3 mm electrode gap, and 400 mA.

[2] = In-vitro delivery of methylene blue into human nails by MHD, photograph; format: in vitro ADME; conditions: MB 0.01% in PBS 1%, MHD for 10 minutes, graphite electrodes ø=6 mm, 3 mm gap, 400 mA, control immersed 10 minutes without MHD
Protocol: Control: Fingernail was immersed in a solution of MB (0.01%) in PBS (1%) for 10 minutes.
Treatment; Fingernail was immersed in the MB solution and exposed to MHD during 10 minutes. The MHD method applied graphite cylindrical electrodes (ø=6 mm), 3 mm electrode gap, and 400 mA.
The darkest regions correspond to the largest concentration of MB.

| Diffusion of MB into nail, treated sample vs control [2] | Compound | Diffusion of PTA into cartilage, treated sample vs control [1] |
| --- | --- | --- |
|  | O=P(O)(O)O.[O]=[W](=[O])=[O].[O]=[W](=[O])=[O].[O]=[W](=[O])=[O].[O]=[W](=[O])=[O].[O]=[W](=[O])=[O].[O]=[W](=[O])=[O].[O]=[W](=[O])=[O].[O]=[W](=[O])=[O].[O]=[W](=[O])=[O].[O]=[W](=[O])=[O].[O]=[W](=[O])=[O].[O]=[W](=[O])=[O] [PTA, phosphotungstic acid] | enhanced diffusion of PTA as compared to the control |
| stronger than in the control | CN(C)c1ccc2nc3ccc(=[N+](C)C)cc-3sc2c1 [MB, methylene blue] |  |
